We go through 18 compounds from patent US6489364B2, “Antiviral protease inhibitors” (priority 1997, dated 2002).

Assay [1] addresses T1, purified HIV proteinase (Human immunodeficiency virus type 1 group M subtype B, UniProt P04585).
T1 construct: purified HIV proteinase
In words: biochemical. The protocol:
Representative compounds were tested for HIV protease activity in a spectrophotometric enzyme assay using the chromogenic substrate His-Lys-Ala-Arg-Val-Leu-p-nitro-Phe-Glu-Ala-Nle-Ser-amide and purified HIV proteinase. The rate of cleavage is followed by continuously registering the change in absorbance at 300 nm. […]

The test system of assay [2] is HIV-1. In words: HIV-1 infected MT4 cell culture, XTT assay. The format is cell-based. The protocol: Compounds are also tested for HIV protease activity in cell culture. MT4 cells grown in RPMI 1640 cell culture medium including 10% fetal calf serum are infected with 10 TCID HIV-1 per 2×10^5 cells and cultured for 6 days. XTT is added and the amount of XTT formazan produced in the following 6 hours represents the number of surviving cells. Results are expressed as the ED50, that is the concentration in μg/ml of the compound of the invention which suppresses viral replication by 50%.
(Formazan colour is commonly taken as a measure of viable cells.)

Setting [3] is: values in parentheses, affinity constant, read-out: (Ki μM).
Setting [4] is: Human immunodeficiency virus 1, 144 h, second part of Table 1, head EC50, MT4 cells, HIV-1, 6 days, XTT, read-out: EC50.
Where [5] appears, read: Human immunodeficiency virus 1, MT4, 144 h.

A word on the Ki: it is the equilibrium dissociation constant of an inhibitor or competing ligand from its target. Broadly, the EC50 is the concentration giving half of the maximal effect. The IC50 is the point on the concentration scale where inhibition reaches its midpoint.

Values after ≈ are worked out from the molar mass of the structure shown. Read-outs that look alike come from different tables or passages of the source.

Take `O=C(N[C@H]1c2ccccc2C[C@H]1O)[C@H](OCc1ccccc1F)[C@H](O)[C@@H](O)[C@@H](OCc1ccccc1F)C(=O)N[C@H]1c2ccccc2C[C@H]1O` [Example 12, N1,N6-di[(1S,2R)-2-hydroxy-2,3-dihydro-1H-1-indenyl]-(2R,3R,4R,5R)-2,5-di(2-fluorobenzyloxy)-3,4-dihydroxyhexanediamide]: in assay [1] (setting [3]), the Ki turned out to be 0.13 nM. Moreover, the EC50 in assay [2] (setting [4]) amounted to 0.04 µg/mL (≈ 0.0581 µM).

As to `O=C(N[C@H]1c2ccccc2C[C@H]1O)[C@H](OCc1ccc(F)cc1F)[C@H](O)[C@@H](O)[C@@H](OCc1ccc(F)cc1F)C(=O)N[C@H]1c2ccccc2C[C@H]1O` [Example 21, N1,N6-di[(1S,2R)-2-hydroxy-2,3-dihydro-1H-1-indenyl]-(2R,3R,4R,5R)-2,5-di(2,4-difluorobenzyloxy)-3,4-dihydroxyhexanediamide], the Ki in assay [1] (setting [3]) was 0.38 nM. The EC50 in assay [2] (setting [4]) was found to be 0.1 µg/mL (≈ 0.138 µM).

`O=C(N[C@H]1c2ccccc2C[C@H]1O)[C@H](OCc1ccc(F)cc1)[C@H](O)[C@@H](O)[C@@H](OCc1ccc(F)cc1)C(=O)N[C@H]1c2ccccc2C[C@H]1O` [Example 13, N1,N6-di[(1S,2R)-2-hydroxy-2,3-dihydro-1H-1-indenyl]-(2R,3R,4R,5R)-2,5-di(4-fluorobenzyloxy)-3,4-dihydroxyhexanediamide]: in assay [1] (setting [3]), the Ki came to 0.07 nM. The EC50 in assay [2] (setting [4]) turned out to be 0.2 µg/mL (≈ 0.29 µM).

Take `CNC(=O)[C@@H](NC(=O)[C@H](OCc1ccc(-c2ccsc2)cc1)[C@H](O)[C@@H](O)[C@@H](OCc1ccc(-c2ccsc2)cc1)C(=O)N[C@H](C(=O)NC)C(C)C)C(C)C` [Example 15, N1,N6-di[(1S)-2-methyl-1-(methylcarbamoyl)propyl]-(2R,3R,4R,5R)-2,5-di[4-(3-thienyl)benzyloxy]-3,4-dihydroxyhexanediamide]: the affinity in assay [1] corresponds to a Ki of 1.2 nM. The same compound registered an EC50 in assay [2] (setting [5]) of 0.03 µg/mL (≈ 0.0385 µM).

With `CC(C)C(NC(=O)C(OCc1ccccc1)C(O)C(O)C(OCc1ccccc1)C(=O)NC(C(=O)NC1CC1)C(C)C)C(=O)NC1CC1` [Example 8, N1,N6-di[(1S)-2-methyl-1-(cyclopropylcarbamoyl)propyl]-(2R,3 R,4R,5R)-25-di(benzyloxy)-3,4-dihydroxyhexanediamide], the Ki in assay [1] (setting [3]) came out at 3.4 nM.

With `CNC(=O)C(NC(=O)C(OCc1cccc(F)c1)C(O)C(O)C(OCc1cccc(F)c1)C(=O)NC(C(=O)NC)C(C)C)C(C)C` (stereo not shown) [Example 17], the Ki in assay [1] (setting [3]) is 2 nM. Moreover, the EC50 in assay [2] (setting [4]) is 0.8 µg/mL (≈ 1.23 µM).

Take `CNC(=O)C(NC(=O)C(OCc1ccc(-c2ccccc2)cc1)C(O)C(O)C(OCc1ccc(-c2ccccc2)cc1)C(=O)NC(C(=O)NC)C(C)C)C(C)C` [Example 14, N1,N6-di[(1S)-2-methyl-1-(methylcarbamoylpropyl]-(2R,3R,4R,5R)-2,5-di[(4-phenylbenzyl)oxy]-3,4-dihydroxyhexanediamide]: affinity in assay [1] was put at a Ki of 0.67 nM. Also, in assay [2] (setting [5]), the EC50 is 0.04 µg/mL (≈ 0.0522 µM).

In assay [2] (second part of Table 1, head EC50, MT4 cells, HIV-1, 6 days, XTT), `CC(C)[C@H](NC(=O)[C@H](OCc1ccccc1)[C@H](O)[C@@H](O)[C@@H](OCc1ccccc1)C(=O)N[C@H]1c2ccccc2C[C@H]1O)C(=O)NCc1ccccn1` [Example 28, N1-[(1S,2R)-2-hydroxy-2,3-dihydro-1H-1-indenyl]-N6-[(1S)-2-methyl-1-([2-pyridylmethyl]carbamoyl)propyl]-(2R,3R,4R,5R,)-2,5-di(benzyloxy)-3,4-dihydroxyhexanediamide] had an EC50 of 0.2 µg/mL (≈ 0.281 µM).

`CNC(=O)[C@@H](NC(=O)[C@H](OCc1ccc(-c2cccc([N+](=O)[O-])c2)cc1)[C@H](O)[C@@H](O)[C@@H](OCc1ccc(-c2cccc([N+](=O)[O-])c2)cc1)C(=O)N[C@H](C(=O)NC)C(C)C)C(C)C` [Example 24, N1,N6-di[(1S)-2-methyl-1-(methylcarbamoyl)propyl]-(2R,3R,4R,5R)-2,5-di[(4-(3-nitrophenyl)benzyl)oxy]-3,4-dihydroxyhexanediamide] showed a Ki in assay [1] of 1.4 nM. The same compound showed an EC50 in assay [2] (setting [5]) of 0.4 µg/mL (≈ 0.467 µM).

Turning to `CNC(=O)C(NC(=O)C(OCc1ccccc1)C(O)C(O)C(OCc1ccccc1)C(=O)NC1c2ccccc2CC1O)C(C)C` [Example 11, N1-[(1S,2R)-2-hydroxy-2,3-dihydro-1H-1-indenyl]-N6-[(1S)-2-methyl-1-(methylcarbamoyl)propyl]-(2R,3R,4R,5R,)-2,5-di(benzyloxy)-3,4-dihydroxyhexanediamide], in assay [1] (setting [3]), the Ki stood at 1.2 nM. For the same compound, the EC50 in assay [2] (setting [4]) turned out to be 0.2 µg/mL (≈ 0.316 µM).

As for `CCOC1=C(c2ccc(CO[C@@H](C(=O)N[C@H](C(=O)NC)C(C)C)[C@H](O)[C@@H](O)[C@@H](OCc3ccc(C4=C(OCC)C(=O)CCC4)cc3)C(=O)N[C@H](C(=O)NC)C(C)C)cc2)CCCC1=O` [Example 32], the Ki in assay [1] (setting [3]) amounted to 0.3 nM. The EC50 in assay [2] (setting [4]) was found to be 0.2 µg/mL (≈ 0.224 µM).

Consider `CCC(C)[C@H](NC(=O)[C@H](OCc1ccccc1)[C@H](O)[C@@H](O)[C@@H](OCc1ccccc1)C(=O)N[C@H](C(=O)NC)C(C)CC)C(=O)NC` (stereo partly drawn) [Example 4, N1,N6-di[(1S)-2-methyl-1-(methylcarbamoyl)butyl]-(2R,3R,4R,5R)-2,5-di(benzyloxy)-3,4-dihydroxyhexanediamide], for which, in assay [1] (setting [3]), the Ki came out at 9 nM.

In the case of `CNC(=O)C(NC(=O)C(OCc1ccc(F)cc1F)C(O)C(O)C(OCc1ccc(F)cc1F)C(=O)NC(C(=O)NC)C(C)C)C(C)C` [Example 20, N1,N6-di[(1S)-2-methyl-1-(methylcarbamoyl)propyl]-(2R,3R,4R,5R)-2,5-di[4-(2,4-difluorobenzyl)oxy]-3,4-dihydroxyhexanediamide], in assay [1] (setting [3]), the Ki stood at 0.1 nM. Further, the EC50 in assay [2] (setting [4]) was 0.9 µg/mL (≈ 1.31 µM).

Consider `CNC(=O)[C@@H](NC(=O)[C@H](OCc1ccc(F)cc1)[C@H](O)[C@@H](O)[C@@H](OCc1ccc(F)cc1)C(=O)N[C@H](C(=O)NC)C(C)C)C(C)C` [Example 7, N1,N6-di[(1S)-2-methyl-1-(methylcarbamoyl)propyl]-(2R,3R,4R,5R)-2,5-di[(4-fluorobenzyl)oxy]-3,4-dihydroxyhexanediamide], for which, in assay [1] (setting [3]), the Ki is 2.3 nM.

In turn, `O=C(NC1c2ccccc2CC1O)C(OCc1ccccc1)C(O)C(O)C(OCc1ccccc1)C(=O)NC1c2ccccc2CC1O` [Example 10, N1,N6-di[(1S,2R)-2-hydroxy-2,3-dihydro-1H-1-indenyl]-(2R,3R,4R,5R)-2.5-di(benzyloxy)-3,4-dihydroxyhexanediamide] showed a Ki in assay [1] of 1.6 nM.

Consider `CNC(=O)C(NC(=O)C(CC(O)C(OCc1ccccc1)C(=O)NC(C(=O)NC)C(C)C)OCc1ccccc1)C(C)C` [Example 3, N1,N6-di[(1S)-2-methyl-1-(methylcarbamoyl)propyl]-(2R,3R,5R)-2,5-di(benzaloxy)-3-hydroxyhexanediamide], for which the IC50 in assay [1] (values printed without parentheses, concentration inhibiting enzyme performance by 50%) was 4 nM.

`CNC(=O)[C@@H](NC(=O)[C@H](OCc1ccccc1)[C@H](O)[C@@H](O)[C@@H](OCc1ccccc1)C(=O)N[C@H](C(=O)NC)C(C)C)C(C)C` [Example 1, N1,N6-di[(1S)-2-methyl-1-(methylcarbamoyl)propyl]-(2R,3R,4R,5R)-2,5-di(benzyloxy)-3,4-dihydroxyhexanediamide]: the IC50 in assay [1] came to 15 nM.

`CNC(=O)[C@@H](NC(=O)[C@H](OCc1ccccc1C)[C@H](O)[C@@H](O)[C@@H](OCc1ccccc1C)C(=O)N[C@H](C(=O)NC)C(C)C)C(C)C` [Example 9, N1,N6-di[(1S)-2-methyl-1-(methylcarbamoyl)propyl]-(2R,3R,4R,5R)-2,5-di[(2-methylbenzyl)oxy]-3,4-dihydroxyhexanediamide]: the Ki in assay [1] (setting [3]) came to 3.5 nM.
